{"source": "patent US20040259926A1", "about": "“3-Aryloxy and 3-heteroaryloxy substituted benzo[b]thiophenes as therapeutic agents” (priority 2003, published 2004)", "data": [{"target": "T1, PI3Kγ (recombinant p101/p110γ protein) (Homo sapiens, UniProt P48736)", "T1 construct": "HA; made in house; host or cells: Spodoptera frugiperda (Sf9) cells, baculovirus co-infection", "T1 sequence (P48736 whole entry, species assumed)": "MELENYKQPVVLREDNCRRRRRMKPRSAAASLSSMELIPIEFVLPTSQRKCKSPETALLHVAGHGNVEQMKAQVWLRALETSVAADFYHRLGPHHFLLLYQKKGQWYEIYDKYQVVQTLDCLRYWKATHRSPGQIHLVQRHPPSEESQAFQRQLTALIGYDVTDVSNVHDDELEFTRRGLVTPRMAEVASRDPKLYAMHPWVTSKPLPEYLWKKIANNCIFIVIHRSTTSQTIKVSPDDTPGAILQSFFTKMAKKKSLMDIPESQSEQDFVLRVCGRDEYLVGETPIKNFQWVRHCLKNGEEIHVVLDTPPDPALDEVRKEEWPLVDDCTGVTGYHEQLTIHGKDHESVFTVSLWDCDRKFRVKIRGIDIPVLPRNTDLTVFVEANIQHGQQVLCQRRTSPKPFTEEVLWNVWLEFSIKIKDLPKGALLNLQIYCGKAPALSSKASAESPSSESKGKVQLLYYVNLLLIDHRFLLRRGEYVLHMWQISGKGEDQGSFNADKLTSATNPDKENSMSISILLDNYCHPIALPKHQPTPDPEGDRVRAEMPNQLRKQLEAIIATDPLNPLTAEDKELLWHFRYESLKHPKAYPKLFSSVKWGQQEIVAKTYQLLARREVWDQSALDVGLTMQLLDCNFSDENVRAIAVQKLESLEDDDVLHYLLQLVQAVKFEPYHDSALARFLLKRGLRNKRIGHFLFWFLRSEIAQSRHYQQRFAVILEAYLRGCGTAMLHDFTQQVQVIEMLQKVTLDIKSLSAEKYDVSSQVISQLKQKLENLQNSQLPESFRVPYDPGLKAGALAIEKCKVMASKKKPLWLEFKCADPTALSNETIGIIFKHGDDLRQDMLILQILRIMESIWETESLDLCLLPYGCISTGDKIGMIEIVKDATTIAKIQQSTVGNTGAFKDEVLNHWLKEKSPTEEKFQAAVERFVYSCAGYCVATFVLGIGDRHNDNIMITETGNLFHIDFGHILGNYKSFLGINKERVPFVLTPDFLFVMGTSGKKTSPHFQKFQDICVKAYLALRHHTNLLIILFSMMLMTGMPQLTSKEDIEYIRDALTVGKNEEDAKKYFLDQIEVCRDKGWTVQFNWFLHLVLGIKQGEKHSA", "T1 sequence (Q8WYR1 whole entry partner, species assumed)": "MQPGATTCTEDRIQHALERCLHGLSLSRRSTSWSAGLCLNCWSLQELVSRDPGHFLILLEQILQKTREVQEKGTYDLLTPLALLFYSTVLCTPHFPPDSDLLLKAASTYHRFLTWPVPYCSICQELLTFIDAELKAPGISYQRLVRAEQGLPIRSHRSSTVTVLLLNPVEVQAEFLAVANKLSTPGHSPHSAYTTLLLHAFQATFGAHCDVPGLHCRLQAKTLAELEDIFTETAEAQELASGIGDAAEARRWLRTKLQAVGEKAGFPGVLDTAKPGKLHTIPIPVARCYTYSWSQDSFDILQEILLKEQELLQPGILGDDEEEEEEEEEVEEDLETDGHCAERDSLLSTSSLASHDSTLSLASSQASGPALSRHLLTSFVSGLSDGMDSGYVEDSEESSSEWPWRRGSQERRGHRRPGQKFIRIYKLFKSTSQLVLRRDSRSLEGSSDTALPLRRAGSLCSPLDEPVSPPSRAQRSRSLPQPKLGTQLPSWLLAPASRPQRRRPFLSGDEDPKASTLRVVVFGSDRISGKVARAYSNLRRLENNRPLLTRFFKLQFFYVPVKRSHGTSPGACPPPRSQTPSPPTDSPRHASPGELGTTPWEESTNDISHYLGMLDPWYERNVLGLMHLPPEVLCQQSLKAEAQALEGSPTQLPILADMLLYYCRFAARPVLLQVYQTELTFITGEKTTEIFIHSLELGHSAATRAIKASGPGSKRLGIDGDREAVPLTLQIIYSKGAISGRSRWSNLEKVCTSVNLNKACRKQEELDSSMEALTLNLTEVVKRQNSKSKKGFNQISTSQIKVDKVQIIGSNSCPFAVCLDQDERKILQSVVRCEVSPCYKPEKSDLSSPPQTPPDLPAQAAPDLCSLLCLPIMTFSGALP", "assay": "PI3Kγ In Vitro Kinase Assay", "assay_type": "biochemical", "conditions": "purified recombinant p101/p110γ with G protein β1/γ2 subunits; 20 μM ATP, [γ-32P-ATP]; 25 μM PIP2 lipid micelles; 20 minutes at room temperature", "protocol": "Spodtera frugiperda cells, grown in ESF921 media, were coinfected with baculovirus expressing a glu-tagged […] and baculovirus expressing an HA-tagged p110γ, at a 3:1 ratio of p101 baculovirus to p110γ baculovirus. Sf9 cells were grown to 1×10^7 total cells/mL in 10 L bioreactors and harvested 48-72 hours post infection. Samples of infected cells were then tested for expression of p101/p110γ PI3 kinase by immunoprecipitation and Western Blot analysis methods (see below).\nTo purify PI3Kγ, 4 volumes of room temperature hypotonic lysis buffer (1 mM MgCl2, 1 mM DTT, 5 mM EGTA, 1 mM Pefabloc, 0.5 μM aprotinin, 5 μM leupeptin, 2 μM pepstatin, 5 μM E64, pH 8) per gram of cell paste, was poured onto frozen cell pellets with stirring, then lysed in a nitrogen “bomb” at 400 psi (599 HC T316, Parr Instrument Co, Moline, Ill.). NaCl was added to 150 mM, and sodium cholate was added to 1% and mixed for another 45 minutes. The lysates were clarified by centrifugation for 25 minutes at 14,000 rpm. The lysates were then loaded over anti-glu-linked Protein-G Sepaharose beads (Covance Research Products, Richmond, Calif.) using 20 mL resin/50 g cell paste. The column was washed with 15 volumes of wash buffer (1 mM DTT, 0.2 mM EGTA, 1 mM Pefabloc, 0.5 μM aprotinin, 5 μM leupeptin, 2 μM pepstatin, 5 μM E64, 150 mM NaCl, 1% sodium cholate, pH 8). PI3Kγ was eluted with 6 column volumes of wash buffer that contain 100 μg/mL of a peptide that competes for binding of the glu tag. The column fractions with the eluted protein (determined by taking OD280 readings) were collected and dialyzed in 0.2 mM EGTA, 1 mM DTT, 1 mM Pefabloc, 5 μM leupeptin, 0.5% sodium cholate, 150 mM NaCl, and 50% glycerol, pH 8. The fractions were stored at −80° C. until further use.\nSpodtera frugiperda cells were coinfected with baculovirus expressing a glu-tagged G protein β1 and baculovirus expressing a G protein β2 at a 1:1 ratio of glu-tagged G protein β1 baculovirus to G protein β2 baculovirus. Sf9 cells are grown in 10 L bioreactors and harvested 48-72 hours post infection. Samples of infected cells were tested for G protein β1/β2 expression by Western Blot analysis, as described below. Cell lysates were homogenized and loaded onto a column of glu-tagged beads as in Biological Example 1 and competed off the column with a glu peptide and processed as described in Biological Example 1.\nThe inhibitory properties of the compounds in Table 1 were assayed in an in vitro PI3K assay. In a 96-well polypropylene plate, each well was spotted with 2 μL of 50 times the desired final concentration of compound in DMSO. Purified recombinant p101/p110γ protein (0.03 μg; ˜2.7 nM) and G protein β1/γ2 subunits (0.09 μg; ˜57.7 nM) for each reaction was combined in the assay buffer (30 mM HEPES, 100 mM NaCl, 1 mM EGTA, and 1 mM DTT). ATP and [γ-^32P-ATP] (0.09 μCi) were added to this mixture so that the final ATP concentration in the reaction was 20 μM. Lipid micelles were formed by sonicating phosphatidylinositol-4,5-diphosphate (PIP2), phosphatidylethanolamine (PE), and Na-cholate in the assay buffer for 10 minutes, adding MgCl2 and incubating on ice for 20 minutes, for final concentrations of 25 μM PIP2, 300 μM PE, 0.02% Na-cholate, and 10 mM MgCl2 in the reaction. The reactions were started by adding equal volumes lipid and enzyme mixture in a total volume of 50 μL, allowed to run for 20 minutes at room temperature, and stopped with 100 μL 75 mM H3PO4. The lipid product was transferred to a glass fiber filter plate and washed with 75 mM H3PO4 several times. The presence of radioactive lipid product (PIP3) was measured by adding Wallac Optiphase mix to each well and counting in a Wallac 1450 Trilux plate reader (PerkinElmer Life Sciences Inc., Boston, Mass. 02118). The IC50 for each compound tested is reported in μM in Table 1: […]", "units": {"IC50": "nM"}, "values": [{"compound": "COc1cc2c(Oc3ccc(CC4CCCC4)cc3)c(C(=O)Nc3nn[nH]n3)sc2cc1C", "note": "[Example B.32, 3-(4-Cyclopentylmethyl-phenoxy)-5-methoxy-6-methyl-benzo[b]thiophene-2-carboxylic acid (2H-tetrazol-5-yl)-amide]", "IC50": 36}, {"compound": "COc1cc2c(Oc3ccc(OC4CCC4)cc3)c(C(=O)Nc3nn[nH]n3)sc2cc1C", "note": "[Example B.33, 3-(4-Cyclobutoxy-phenoxy)-5-methoxy-6-methyl-benzo[b]thiophene-2-carboxylic acid (2H-tetrazol-5-yl)-amide]", "IC50": 7}, {"compound": "COc1cc2c(Oc3cccc(OC4CCCC4)c3)c(C(=O)Nc3nn[nH]n3)sc2cc1C", "note": "[Example B.34, 3-(3-Cyclopentyloxy-phenoxy)-5-methoxy-6-methyl-benzo[b]thiophene-2-carboxylic acid (2H-tetrazol-5-yl)-amide]", "IC50": 110}, {"compound": "COc1cc2c(Oc3cncnc3N3CCCCC3)c(C(=O)Nc3nn[nH]n3)sc2cc1C", "note": "[Example B.37, 5-Methoxy-6-methyl-3-(4-piperidin-1-yl-pyrimidin-5-yloxy)-benzo[b]thiophene-2-carboxylic acid (2H-tetrazol-5-yl)-amide]", "IC50": 89}, {"compound": "COc1cc2c(Oc3ccc(Br)cc3)c(C(=O)Nc3nn[nH]n3)sc2cc1C", "note": "[Example B.38, 3-(4-Bromo-phenoxy)-5-methoxy-6-methyl-benzo[b]thiophene-2-carboxylic acid (2H-tetrazol-5-yl)-amide]", "IC50": 16}, {"compound": "COc1cc2c(Oc3ccc(F)cc3)c(C(=O)Nc3nn[nH]n3)sc2cc1C", "note": "[Example B.39, 3-(4-Fluoro-phenoxy)-5-methoxy-6-methyl-benzo[b]thiophene-2-carboxylic acid (2H-tetrazol-5-yl)-amide]", "IC50": 18}, {"compound": "COc1cc2c(Oc3ccc(Cl)cc3F)c(C(=O)Nc3nn[nH]n3)sc2cc1C", "note": "[Example B.40, 3-(4-Chloro-2-fluoro-phenoxy)-5-methoxy-6-methyl-benzo[b]thiophene-2-carboxylic acid (2H-tetrazol-5-yl)-amide]", "IC50": 22}, {"compound": "COc1cc2c(Oc3ccc(Cl)c(F)c3)c(C(=O)Nc3nn[nH]n3)sc2cc1C", "note": "[Example B.41, 3-(4-Chloro-3-fluoro-phenoxy)-5-methoxy-6-methyl-benzo[b]thiophene-2-carboxylic acid (2H-tetrazol-5-yl)-amide]", "IC50": 135}, {"compound": "COc1cc2c(Oc3cccc(C(F)(F)F)c3)c(C(=O)Nc3nn[nH]n3)sc2cc1C", "note": "[Example B.42, 5-Methoxy-6-methyl-3-(3-trifluoromethyl-phenoxy)-benzo[b]thiophene-2-carboxylic acid (2H-tetrazol-5-yl)-amide]", "IC50": 180}, {"compound": "COc1cc2c(Oc3ccc([N+](=O)[O-])cc3)c(C(=O)Nc3nn[nH]n3)sc2cc1C", "note": "[Example B.43, 5-Methoxy-6-methyl-3-(4-nitro-phenoxy)-benzo[b]thiophene-2-carboxylic acid (2H-tetrazol-5-yl)-amide]", "IC50": 56}, {"compound": "COc1cc2c(Oc3ccc(Cl)c(Cl)c3)c(C(=O)Nc3nn[nH]n3)sc2cc1C", "note": "[Example B.44, 3-(3,4-Dichloro-phenoxy)-5-methoxy-6-methyl-benzo[b]thiophene-2-carboxylic acid (2H-tetrazol-5-yl)-amide]", "IC50": 165}, {"compound": "COc1cc2c(Oc3ccc(OC(F)(F)F)cc3)c(C(=O)Nc3nn[nH]n3)sc2cc1C", "note": "[Example B.45, 5-Methoxy-6-methyl-3-(4-trifluoromethoxy-phenoxy)-benzo[b]thiophene-2-carboxylic acid (2H-tetrazol-5-yl)-amide]", "IC50": 17}, {"compound": "COc1cc2c(Oc3cccnc3)c(C(=O)Nc3nn[nH]n3)sc2cc1C", "note": "[Example B.46, 5-Methoxy-6-methyl-3-(pyridin-3-yloxy)-benzo[b]thiophene-2-carboxylic acid (2H-tetrazol-5-yl)-amide]", "IC50": 120}, {"compound": "COc1cc2c(Oc3ccc(S(C)(=O)=O)cc3)c(C(=O)Nc3nn[nH]n3)sc2cc1C", "note": "[Example B.47, 3-(4-Methanesulfonyl-phenoxy)-5-methoxy-6-methyl-benzo[b]thiophene-2-carboxylic acid (2H-tetrazol-5-yl)-amide]", "IC50": 58}, {"compound": "COc1cc2c(Oc3ccc(C4CCC(C)C4)cc3)c(C(=O)Nc3nn[nH]n3)sc2cc1C", "note": "(stereo not drawn) [Example B.49, 5-Methoxy-6-methyl-3-[4-(3-methyl-cyclopentyl)-phenoxy]-benzo[b]thiophene-2-carboxylic acid (2H-tetrazol-5-yl)-amide]", "IC50": 71}, {"compound": "COc1cc2c(Oc3ccc(OC4CCC(C)C4)cc3)c(C(=O)Nc3nn[nH]n3)sc2cc1C", "note": "(stereo not drawn) [Example B.50, 5-Methoxy-6-methyl-3-[4-(3-methyl-cyclopentyloxy)-phenoxy]-benzo[b]thiophene-2-carboxylic acid (2H-tetrazol-5-yl)-amide]", "IC50": 51}, {"compound": "COc1cc2c(Oc3ccc(Cl)cc3)c(C(=O)Nc3nn[nH]n3)sc2cc1C", "note": "[Example B.51, 3-(4-Chloro-phenoxy)-5-Methoxy-6-methyl-benzo[b]thiophene-2-carboxylic acid (2H-tetrazol-5-yl)-amide]", "IC50": 61}, {"compound": "CCCCC1CCCC(c2ccc(Oc3c(C(=O)Nc4nn[nH]n4)sc4cc(C)c(OC)cc34)cc2)C1", "note": "(stereo not drawn) [Example B.52, 3-[4-(3-Butyl-cyclohexyl)-phenoxy]-5-methoxy-6-methyl-benzo[b]thiophene-2-carboxylic acid (2H-tetrazol-5-yl)-amide]", "IC50": 1310}, {"compound": "COc1cc2c(Oc3ccc(C4CCC(C)(C)CC4)cc3)c(C(=O)Nc3nn[nH]n3)sc2cc1C", "note": "[Example B.55, 3-[4-(4,4-Dimethyl-cyclohexyl)-phenoxy]-5-methoxy-6-methyl-benzo[b]thiophene-2-carboxylic acid (2H-tetrazol-5yl)-amide]", "IC50": 102}, {"compound": "COc1cc2c(Oc3ccc(C4CCCCCC4)cc3)c(C(=O)Nc3nn[nH]n3)sc2cc1C", "note": "[Example B.57, 3-(4-cycloheptyl-phenoxy)-5-methoxy-6-methyl-benzo[b]thiophene-2-carboxylic acid (2H-tetrazol-5-yl)amide]", "IC50": 40}, {"compound": "COc1cc2c(Oc3ccc(C4CCCC4)cc3)c(C(=O)Nc3nn[nH]n3)sc2cc1C", "note": "[Example B.58, 3-(4-cyclopentyl-phenoxy)-5-methoxy-6-methyl-benzo[b]thiophene-2-carboxylic acid (2H-tetrazol-5-yl)amide]", "IC50": 35}, {"compound": "COCC1(c2ccc(Oc3c(C(=O)Nc4nn[nH]n4)sc4cc(C)c(OC)cc34)cc2)CCCC1", "note": "[Example B.59, 5-Methoxy-3-[4-(1-methoxymethyl-cyclopentyl)-phenoxy]-6-methyl-benzo[b]thiophene-2-carboxylic acid (2H-tetrazol-5-yl)-amide]", "IC50": 25}, {"compound": "COc1cc2c(Oc3ccc(C4CCC(=O)CC4)cc3)c(C(=O)Nc3nn[nH]n3)sc2cc1C", "note": "[Example B.60, 5-Methoxy-6-methyl-3-[4-(4-oxo-cyclohexyl)-phenoxy]-benzo[b]thiophene-2-carboxylic acid (2H-tetrazol-5-yl)-amide]", "IC50": 22}, {"compound": "COc1cc2c(Oc3ccc(C4(C(N)=O)CCCC4)cc3)c(C(=O)Nc3nn[nH]n3)sc2cc1C", "note": "[Example B.64, 3-[4-(1-carbamoyl-cyclopentyl)-phenoxy]-5-methoxy-6-methyl-benzo[b]thiophene-2-carboxylic acid (2H-tetrazol-5-yl)-amide]", "IC50": 9}]}]}
